Among the test systems are M14; RPMI-8226; MDA-N; UO-31; OVCAR-4; OVCAR-8; Malme-3M; SF-268; SNB-19; Hs-578T; A498; SK-MEL-28; SK-OV-3; SK-MEL-2; HOP-62; HCT-116; U-251; LOX IMVI; TK-10; NCI-H460.
What all share (assay): NCI-60 cell line screen, 48 h

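These data come from cells grown in 96-well plates and exposed to compound for 48 hours at five concentrations. GI50 is the concentration that inhibits growth by half.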 Calls of active or inactive are those of the source. No stated cut-off is given here; in the data, active = GI50 up to about 1.1 µM and inactive = higher. A value given as a limit tells only on which side of the number the result lay.

As to `COc1c2c(cc3c1OCO3)C13C=CC(OC)CC1N(CC3)C2.[O-][Cl+3]([O-])([O-])O` (centres undefined), the GI50 in the assay with M14 is > 100 µM (inactive); in the assay with RPMI-8226, > 100 µM (inactive); in the assay with MDA-N, 37.3 µM (inactive); in the assay with UO-31, > 100 µM (inactive); in the assay on OVCAR-4, 49.3 µM (inactive); with OVCAR-8, > 100 µM (inactive). Further, the GI50 with Malme-3M, in the assay with SF-268, with SNB-19, in the assay with Hs-578T, in the assay on A498 and with SK-MEL-28 was > 100 µM (inactive) in each case. Besides, the GI50 in the assay on SK-OV-3, in the assay on SK-MEL-2, in the assay on HOP-62, in the assay with HCT-116, in the assay on U-251 and in the assay on LOX IMVI was > 100 µM (inactive) throughout. Also, the GI50 with TK-10 was > 100 µM (inactive).

As for `O=C(/N=N/c1ccc(Br)cc1)NNc1ccc(Br)cc1`, the GI50 in the assay with M14 is 17.1 µM (inactive); in the assay on RPMI-8226 it was 23.8 µM (inactive); in the assay with MDA-N, 24.2 µM (inactive); in the assay with UO-31 it was 22.9 µM (inactive); in the assay with OVCAR-8, 29.7 µM (inactive); with Malme-3M it was 26 µM (inactive). The GI50 was 21.9 µM (inactive) in the assay on NCI-H460; 39.8 µM (inactive) in the assay with SNB-19; > 10 µM (inactive) in the assay on Hs-578T; 44 µM (inactive) in the assay with A498; 26.3 µM (inactive) with SK-MEL-28; 29 µM (inactive) with SK-OV-3. Further, the GI50 with SK-MEL-2 is 19.1 µM (inactive); in the assay with HOP-62, 16.4 µM (inactive); in the assay on HCT-116 it was 17.5 µM (inactive); with U-251 it was 17.5 µM (inactive).

As to `CC(=O)Oc1ccc(-c2cc3ccccc3oc2=O)cc1`, the GI50 in the assay on M14, with RPMI-8226, in the assay on MDA-N, in the assay with UO-31, in the assay with OVCAR-4 and in the assay with OVCAR-8 was > 100 µM (inactive) each time. Besides, the GI50 in the assay on Malme-3M is > 100 µM (inactive); in the assay with SF-268, > 100 µM (inactive); in the assay on NCI-H460 it was > 100 µM (inactive); in the assay with SNB-19, > 100 µM (inactive); in the assay on Hs-578T, > 100 µM (inactive); in the assay with A498, 38.9 µM (inactive). Further, the GI50 was > 100 µM (inactive) with SK-MEL-28; > 100 µM (inactive) in the assay with SK-MEL-2; > 100 µM (inactive) with HOP-62; > 100 µM (inactive) in the assay on HCT-116; > 100 µM (inactive) with U-251; 81.3 µM (inactive) with LOX IMVI. Also, in the assay on TK-10, the GI50 is > 100 µM (inactive).

Take `C[C@@H]1CC[C@@]2(OC1)O[C@H]1[C@@H](O)[C@H]3[C@@H]4CC[C@H]5C[C@@H](O[C@@H]6O[C@H](CO)[C@H](O[C@@H]7O[C@H](CO)C(O)[C@H](O[C@@H]8OC[C@@H](O)[C@H](O)[C@H]8O)[C@H]7O[C@@H]7O[C@H](CO)[C@H](O)[C@H](O[C@@H]8O[C@H](CO)[C@@H](O)[C@H](O)[C@H]8O)[C@H]7O)[C@H](O)[C@H]6O)[C@H](O)C[C@]5(C)[C@H]4CC[C@]3(C)[C@H]1[C@@H]2C` (some centres undefined) [DIGITONIN]: the GI50 is 12.4 µM (inactive) in the assay with M14; 3.15 µM (inactive) with RPMI-8226; 3.33 µM (inactive) in the assay with MDA-N; 1.94 µM (inactive) in the assay on UO-31; 1.97 µM (inactive) in the assay on OVCAR-4; 2.02 µM (inactive) in the assay with OVCAR-8. For the same molecule, the GI50 was 2.09 µM (inactive) in the assay on SF-268; 1.94 µM (inactive) in the assay with NCI-H460; 2.07 µM (inactive) in the assay with SNB-19; 2.06 µM (inactive) with Hs-578T; 6.18 µM (inactive) in the assay on A498; 2.61 µM (inactive) with SK-MEL-28. The GI50 in the assay with SK-OV-3 is 2.36 µM (inactive); with SK-MEL-2, 3.37 µM (inactive); in the assay with HOP-62, 2.37 µM (inactive); in the assay with HCT-116, 1.95 µM (inactive); in the assay on U-251, 3.43 µM (inactive); in the assay on LOX IMVI, 3.42 µM (inactive). Further, in the assay on TK-10, the GI50 was 2.49 µM (inactive).

For `CCOC(=O)C(NC(=O)c1ccccc1)(Nc1ccc(S(=O)(=O)Nc2cc(C)on2)cc1)C(F)(F)F` (centres undefined), the GI50 with M14 was > 100 µM (inactive); with RPMI-8226 it was > 100 µM (inactive); in the assay on MDA-N, > 100 µM (inactive); with UO-31, > 100 µM (inactive); in the assay with OVCAR-4, > 10 µM (inactive); in the assay with OVCAR-8, > 100 µM (inactive). Moreover, the GI50 in the assay with Malme-3M, in the assay with SF-268, in the assay on NCI-H460, in the assay with SNB-19, with Hs-578T and with SK-MEL-28 was > 100 µM (inactive) each time. Besides, the GI50 with SK-OV-3, in the assay on SK-MEL-2, with HOP-62, in the assay with HCT-116, with U-251 and with LOX IMVI was > 100 µM (inactive) throughout. Also, the GI50 with TK-10 is 56.1 µM (inactive).

In the case of `Oc1cccc2c(Cl)ccnc12`, the GI50 is 1.44 µM (inactive) in the assay with M14; 0.499 µM (active) in the assay on RPMI-8226; 3.58 µM (inactive) in the assay with MDA-N; 1.37 µM (inactive) in the assay on UO-31; 1.7 µM (inactive) in the assay on OVCAR-4; 0.372 µM (active) in the assay on OVCAR-8. Also, the GI50 was 6.97 µM (inactive) with Malme-3M; 0.522 µM (active) in the assay on SF-268; 3.08 µM (inactive) in the assay with NCI-H460; 23 µM (inactive) in the assay on SNB-19; 7.93 µM (inactive) in the assay on Hs-578T; 15.8 µM (inactive) in the assay on A498. In addition, the GI50 is 7.69 µM (inactive) in the assay with SK-MEL-28; 32.9 µM (inactive) in the assay on SK-OV-3; 1.95 µM (inactive) in the assay with HOP-62; 0.279 µM (active) in the assay on HCT-116; 1.45 µM (inactive) in the assay with U-251; 0.384 µM (active) in the assay on LOX IMVI. In the assay on TK-10, the GI50 was 44.3 µM (inactive).

Take `CCCNC1=Nc2ccccc2N(Cc2ccccc2)CC1`: the GI50 in the assay with M14 is 14.3 µM (inactive); with RPMI-8226, 12.9 µM (inactive); in the assay on MDA-N, 26 µM (inactive); in the assay with UO-31, 30.3 µM (inactive); with OVCAR-4, 35 µM (inactive); with OVCAR-8 it was 14.9 µM (inactive). The GI50 in the assay on Malme-3M was 10.3 µM (inactive); in the assay on SF-268, 15.7 µM (inactive); in the assay on NCI-H460, 13.4 µM (inactive); with SNB-19, 22.2 µM (inactive); in the assay with Hs-578T it was 14.9 µM (inactive); in the assay with A498, 11.4 µM (inactive). Further, the GI50 is 13.3 µM (inactive) in the assay with SK-MEL-28; 28.2 µM (inactive) in the assay with SK-OV-3; 17 µM (inactive) with SK-MEL-2; 30.5 µM (inactive) in the assay on HOP-62; 29.7 µM (inactive) in the assay on HCT-116; 18 µM (inactive) in the assay with U-251. Moreover, in the assay on TK-10, the GI50 is 27.8 µM (inactive).

Regarding `N=c1c2ccccc2nc2oc3cc([N+](=O)[O-])ccc3n12`, the GI50 in the assay on M14 is > 100 µM (inactive); in the assay on RPMI-8226 it was > 100 µM (inactive); with MDA-N, > 100 µM (inactive); with UO-31 it was 16.6 µM (inactive); in the assay with OVCAR-4, 21.3 µM (inactive); in the assay on OVCAR-8, 20.9 µM (inactive). Besides, the GI50 is 25.9 µM (inactive) in the assay with Malme-3M; 27.4 µM (inactive) in the assay with SF-268; 36.9 µM (inactive) in the assay on NCI-H460; 24.9 µM (inactive) with SNB-19; 4.23 µM (inactive) in the assay with Hs-578T; 74 µM (inactive) in the assay with SK-MEL-28. Besides, the GI50 is 17.9 µM (inactive) with SK-OV-3; 94.2 µM (inactive) in the assay on SK-MEL-2; 18.1 µM (inactive) with HOP-62; 25.6 µM (inactive) in the assay with HCT-116; 15.5 µM (inactive) with U-251; 21 µM (inactive) in the assay with LOX IMVI. Also, the GI50 in the assay with TK-10 was 19.6 µM (inactive).

Take `COc1ccc(Oc2nc(C#CC(C)(C)O)nc(Oc3ccc(OC)cc3)n2)cc1`: the GI50 in the assay with M14 is 2.2 µM (inactive); in the assay with MDA-N, 8.55 µM (inactive); in the assay on UO-31, 1.55 µM (inactive); in the assay with OVCAR-4, 1.79 µM (inactive); in the assay on OVCAR-8, 3.76 µM (inactive); in the assay on Malme-3M it was 16.2 µM (inactive). For the same molecule, the GI50 with SF-268 was 9.08 µM (inactive); in the assay with NCI-H460 it was 16.7 µM (inactive); with SNB-19 it was 20 µM (inactive); in the assay on Hs-578T it was 16.4 µM (inactive); with A498, 17.8 µM (inactive); in the assay on SK-MEL-28, 4.9 µM (inactive). Besides, the GI50 in the assay with SK-OV-3 is 19.2 µM (inactive); in the assay on SK-MEL-2 it was 6.73 µM (inactive); with HOP-62 it was 21.8 µM (inactive); in the assay with HCT-116 it was 2.82 µM (inactive); with U-251, 3.82 µM (inactive); with LOX IMVI it was 1.39 µM (inactive). Moreover, the GI50 in the assay with TK-10 is 12.6 µM (inactive).

As for `CS(=O)(=O)OCC(CCl)(CCl)CCl`, the GI50 in the assay with M14, in the assay with MDA-N, with UO-31, with OVCAR-4, in the assay on OVCAR-8 and with SF-268 was > 100 µM (inactive) each time. Moreover, the GI50 in the assay on NCI-H460, with SNB-19, in the assay on Hs-578T, with A498, in the assay with SK-MEL-28 and with SK-OV-3 was > 100 µM (inactive) in each case. Further, the GI50 in the assay with HCT-116, with U-251, in the assay with LOX IMVI and in the assay with TK-10 was > 100 µM (inactive) throughout.

Source of the values: ChEMBL document CHEMBL1201862, “PubChem BioAssay data set” (2004).
